These results are taken from patent publication US9241976B2, “Use of HDL-related molecules to treat and prevent proinflammatory conditions” (THE REGENTS OF THE UNIVERSITY OF CALIFORNIA, priority 2011, dated 2016).

In one assay the test system is cyclin D1 and cyclin A. Kind of assay: Western blot of cyclin D1 and cyclin A in CT26 cells. It counts as cell-based, mouse. On the procedure:
Total cell proteins were collected after treatment in cell lysis buffer containing 0.1 mol/L NaCl, 5 mmol/L EDTA, 50 mmol/L sodium orthovanadate, 1% Triton X-100, and protease inhibitor tablet in 50 mmol/L Tris buffer (pH 7.5). Twenty micrograms of total proteins were separated by SDS-PAGE and transferred onto nitrocellulose membrane and followed by incubation with primary antibody at 4° C. in 5% skim milk and 0.1% Tween-20. Anti-cyclin D1 and anti-cyclin A rabbit polyclonal antibodies were used at 1:1,000 dilution, and anti-b-actin polyclonal antibody was used at 1:2,000 dilution.
On the technique in general: Immunoblotting shows a protein as a band on a membrane.

A further assay has as its system CT26 cells. Briefly: Cell-cycle analysis of CT26 cells by flow cytometry. In kind it is cell-based, mouse. On the set-up: dose or concentration left out as unconfirmed. The conditions noted are these: 48 hours. On the procedure: CT26 cells were cultured in 6-well plates overnight and then serum starved for 48 hours. […] Cells were collected, washed with PBS, and fixed with 70% ice-cold methanol overnight at 4° C. The fixed cells were collected by centrifugation, washed with PBS, and resuspended in 0.3 mL of PBS containing […] RNaseA and […] propidium iodide, and subjected to flow cytometric cell-cycle analysis by FACScan from BD Biosciences.

Assay [1] relates to mouse ovarian cancer cells (ID-8 cells). The conditions noted are these: reference (17); cited from earlier work.
Another assay relates to IL-6. Kind of assay: Plasma IL-6 ELISA. In kind it is in vivo, mouse. The conditions noted are these: lung tumor mice; 10 mg/kg/d subcutaneously for 3 weeks; vs control group. As for the experimental part:
Interleukin (IL)-6 concentrations were measured in plasma by a competition ELISA according to the manufacture's protocol (Invitrogen).
(In general: ELISA stands for enzyme-linked immunosorbent assay.)

Another assay has as its system APC^min/+ mice. Briefly: APC^min/+ mice study, intestinal tumors. In kind it is in vivo. The conditions noted are these: C57BL/6J-APC^min/+ mice; 100 mg/kg/d in mouse chow for 8 weeks. As for the experimental part: 6-week-old APC^Min/+ male mice on a C57BL/6J background were treated with bHDL 100 mg/kg/day administered in a chow diet. After 8 weeks treatment, mice were sacrificed. The entire intestine was immediately removed, fixed in formalin and 70% ethanol. The intestine was opened and examined under a dissecting microscope to count and measure the tumors.
Six-week-oldAPC^min/+ male mice on a C57BL/6J background were treated with L-4F or sc-4F at 100 mg/kg/d administered in a chow diet. After 8 weeks treatment, mice were sacrificed. The entire intestine was immediately removed, fixed in formalin and 70% ethanol. The intestine was opened and examined under a dissecting microscope to count and measure the tumors.

Another assay relates to ERK1/2. Briefly: Insulin-stimulated phosphorylation of ERK1/2 in OV2008 cells, Western blot. It counts as cell-based, human. The conditions noted are these: 10 μg/ml, insulin 200 nM. On the procedure: FIGS. 10A-10B. Effect of L-4F on the insulin-stimulated activation of downstream signaling molecules in OV2008 cells. After an overnight starvation, OV2008 cells were treated with L-4F (10 μg/ml) for 1 h, and insulin was added at a final concentration of 200 nM. Cell lysates were collected at various time points and subjected to Western blot analysis. FIG. 10A, L-4F inhibits insulin-stimulated phosphorylation of p70s6 kinase and subsequent HIF-1α expression in OV2008 cells. FIG. 10B, effect of L-4F on insulinstimulated phosphorylation of ERK1/2 and Akt in OV2008 cells.
Western blot analyses were performed as described previously (Gao et al., 2011). In brief, cell lysates were collected in a lysis buffer containing 0.1 MNaCl, 5 mM EDTA, 50 μM sodium orthovanadate, 1% Triton X-100, and protease inhibitor tablet (Roche Diagnostics, Indianapolis, Ind.) in 50 mM Tris buffer, pH 7.5, loaded onto 4 to 12% Bis-Tris gel (Invitrogen), transferred to polyvinylidene difluoride membrane, and incubated with the appropriate antibodies. […]

In the next assay the test system is HIF-1α. Briefly: ID8 flank tumor model, HIF-1α immunohistochemistry. In kind it is in vivo, mouse. The conditions noted are these: C57BL/6J mice, ID8 tumors; 10 mg/kg s.c. daily for 3 weeks; vs sc-4F. As for the experimental part:
Nine-week-old C57BL/6J female mice were given a 0.5-ml subcutaneous injection of 5×10^6 ID8 cells prepared as a single cell suspension in PBS mixed with an equal volume of cold Matrigel (BD Biosciences, San Jose, Calif.). After 2 weeks, mice started to receive scrambled 4F peptide (sc-4F) or L-4F (10 mg/kg) by subcutaneous injection at a site distant from the site where the ID8 cells were injected daily for 3 weeks. After 3 weeks, the mice were sacrificed for tumor collection and further analyses.
Frozen tumor tissues were sectioned at a thickness of 5 μm and fixed with cold acetone for 10 min at −20° C. The sections were blocked with 10% normal goat serum and 4% bovine serum albumin prepared in PBS for 3 h and immediately incubated with rabbit anti-mouse polyclonal HIF-1α antibody (1:200) (Abcam Inc.) or rat anti-mouse monoclonal CD31 antibody (1:25) (Abcam Inc.) overnight at 4° C. The sections were then incubated with corresponding biotinylated secondary antibodies (Vector Laboratories) for 30 min at room temperature followed by incubation with Vectastain ABC Elite reagents (Vector Laboratories) to visualize the staining. Finally, sections were lightly counterstained with hematoxylin, dehydrated, and coverslipped with Vecta-Mount solution (Vector Laboratories).

The test system of another assay is ROS. Kind of assay: Cellular reactive oxygen species, dichlorofluorescein oxidation assay in OV2008 cells. In kind it is cell-based, human. Particulars: 10 μg/ml pretreatment 1 h. On the procedure:
As described previously (Zhou et al., 2007; Lee et al., 2009), OV2008 cells were plated onto a glass slip (Thermo Fisher Scientific) in a 24-well plate at 4×10^4 cells per well, cultured overnight in normal cultured condition, starved in serum-free media overnight, and treated with L-4F (10 μg/ml) for 1 h. Then, dichlorofluorescein diacetate (DCFHDA, 10 μM) and insulin (200 nM)/CoCl2 (100 μM) were added and incubated with the cells for an additional 0.5 h. The cells were washed twice with phosphate-buffered saline (PBS). The images were captured with a fluorescence microscope (Olympus IX70; Olympus, Tokyo, Japan).

For assay [2], the system named is HDL anti-inflammatory properties. Particulars: 0.43 mg/kg daily, intravenous infusion 7 days or subcutaneously 28 days, patients with coronary heart disease (Watson and colleagues); cited from earlier work.

On to “Ac-DWFKAFYDKVAEKFKEAF-NH2 [L-4F, Ac-D-W-F-K-A-F-Y-D-K-V-A-E-K-F-K-E-A-F-NH2]”, for which, in the assay with cyclin D1 and cyclin A, the “expression of cyclin D1 and cyclin A” value is recorded as “significantly lower”. The cell-cycle profile result in the assay on CT26 cells is “induced an increase in G0/G1 phase and arrest in S phase”. Moreover, in assay [1], the viability and proliferation entry is recorded as “reduced”. Besides, the “IL-6 levels in plasma” value with IL-6 is recorded as “significantly decreased”. For the same substance, in the assay on APC^min/+ mice, the “numbers of tumors of diameter 1-3 mm” value is 36.8; the “numbers of tumors of diameter >3 mm” value amounted to 5; the “total tumor numbers in the intestinal tract, percent of the control” value is listed as 60%. Moreover, in the assay on ERK1/2, the “insulin-stimulated activation of ERK1/2” value is listed as “inhibited activation”. In addition, the “HIF-1α expression in tumor tissues” value with HIF-1α is given as “decreased”. Also, the “cellular ROS production induced by insulin and CoCl2” value with ROS is on record as “dramatically prevented”. The HDL anti-inflammatory properties entry in assay [2] is on record as “did not achieve any improvement”.
